The text below walks through data of a melting point compilation (Tetko et al.; mined from patent text by program, amines drawn as free bases though some values may be those of a salt).

As a reminder, the melting point is the temperature of the solid-liquid transition.

`N#Cc1c(N2CCN(C(=O)c3cccs3)CC2)c2ccccc2n(Cc2ccc(F)cc2)c1=O` registered a melting point of 258 °C.
Turning to `O=C(Nc1ccc(F)cc1F)Nc1c(-c2ccccc2)c2cc(Cl)ccc2[nH]c1=O`, the melting point fell in the range of 222 to 224 °C.
On to `C=CCNCCC(=O)O`, for which the melting point was 194 to 195 °C.
Compound `CCCCCCN(Cc1ccccc1)c1c(N[C@@H](Cc2ccccc2)C(=O)O)c(=O)c1=O` gave a melting point of 61 to 65 °C.
For `CCOCOc1cccc(C(CC#N)N2Cc3c(Cl)ccc(NC(=O)C4CC4)c3C2=O)c1` (stereo not drawn) the value was 200 to 202 °C; for `COC(=O)c1cc(=O)c2c(C(F)(F)F)c3c(=O)cc(C(=O)OC)[nH]c3c(Cl)c2[nH]1`, 205 to 208 °C.
Compound `C=CC(=O)NCc1ccc([N+](=O)[O-])cc1` came in with a melting point of 119 to 121 °C.
`N#Cc1ccc(S)c(C#N)c1` gave a melting point of 180 °C.
Then `CCNc1nc(-n2cc(C(=O)O)c(=O)c3cc(F)c(F)c(Cl)c32)c(F)cc1F`, with 236 to 242 °C.
Then `CC(=O)CCCn1c(C)nc2c(N)nc3ccccc3c21`, with 194 to 196 °C; and `CN(C(=O)CCS(C)(=O)=O)c1cn(-c2cccnc2)nc1Cl`, with 90 to 91 °C; and `CC1(CN2CCN(C(=O)NCC=Cc3ccc(C(F)(F)F)cc3)CC2)Cn2cc([N+](=O)[O-])nc2O1` (stereo not drawn), with 105 to 107 °C.
Regarding `NC(=O)N(O)[C@H]1CC[C@@H](Sc2ccccc2)C1` (relative stereo), the melting point was 146 to 148 °C.
For `NS(=O)(=O)c1ccc(-n2nc(C(F)F)cc2-c2ccc(Cl)cc2)cc1` the value was 185 to 186 °C; for `O=c1[nH]c2c(Cl)cc(Cl)cc2c(=O)n1CCCN1CC=C(c2ccc(Cl)cc2)CC1`, 197 to 199 °C; for `CCCCCCCCCCCCc1cc(N)on1`, 48.5 to 49.5 °C.
Then `COc1ccc2c(c1)CCC([C@@H]1CC[C@H](O)[C@@]1(C)CC(=O)O)C2` (stereo partly drawn), with 142 °C.
The compound `COC(=O)CCc1ccc(OCCSCCO)cc1` had a melting point of 47 to 48 °C.
In turn, `COC(=O)c1ccccc1S(=O)(=O)NC(=O)Nc1cc(C)cc(C)n1` returned a melting point of 181 to 182 °C.
In turn, `Cc1ccc2sc(C(=O)O)cc(=O)c2c1` registered a melting point of 236 to 237 °C.
For `CN1N=C2c3ccccc3CCC2C1c1ccncc1` (stereo not drawn) the value was 195 to 198 °C; for `Clc1cc(-c2ccccc2)ccn1`, 70 to 72 °C.
As for `CCc1c(OC)nc2nc(-c3nnc(C(F)(F)F)o3)cn2c1C`, the melting point fell in the range of 210 to 211 °C.
For `CCOC(=O)CN1C(=O)SC(Cc2ccc(N3CCC(NCC(O)c4ccc(O)c(NS(C)(=O)=O)c4)CC3)cc2)C1=O` (stereo not drawn) the value was 153 to 155 °C; for `CCc1nc2c(N)nc3ccccc3c2n1CCC1(O)CC1`, 199 to 200 °C; for `COC(=O)c1c(Cc2ccc(C(=O)NCCO)cc2)c(=O)c2ccc(Cl)cc2n1-c1ccccc1`, 162 to 164 °C.
Regarding `O=c1c2cc(F)ccc2nc(CNCc2ccccc2F)n1-c1ccccc1Cl`, the melting point turned out to be 140 °C.
Then `COc1ccccc1N1CCN(CCc2ccc(OC(=O)C(C)(C)C)c3ncccc23)CC1`, with 115 °C; and `Cc1ccn2c(C)c(-c3ccc4c(c3)NC(=O)CO4)nc2c1`, with 239 to 241 °C.
For `O=C1NC(=O)C(CC#Cc2ccc(Cl)cc2)(Sc2nc3ccccc3o2)S1` (stereo not drawn) the value was 137 to 139 °C; for `COc1cc(Nc2c(C#N)cnc3cc4cc(OC)c(OCCCl)cc4cc23)c(Cl)cc1F`, 193 to 204 °C.
For `O=C(N[C@H](Cc1ccc(C(F)(F)F)cc1)[C@@H](O)c1ccc(F)cc1)c1cccc2c1-c1ccccc1C2=O` (racemic) the value was 231 to 232 °C; for `Cn1ccnc1Sc1ncc([N+](=O)[O-])n1C`, 123 to 124 °C.
On to `Cn1c(C(F)(F)F)nn(-c2ccccc2[N+](=O)[O-])c1=O`, for which the melting point is 83 °C.
For `CN(C)CCNc1ccnc2cc3c(cc12)OCO3` the value was 193 to 194 °C; for `CN(C)CCNc1ccc(C=O)c2sc3ccc(O)cc3c(=O)c12`, 219 to 220 °C; for `Cc1ccc(S(=O)(=O)n2c(-c3cn(C)c4ccc(O)cc34)cc3cccnc32)cc1`, 256 to 257 °C.
Compound `Cc1ccc(C(NCC(=O)Nc2c(C(C)C)cccc2C(C)C)c2ccccc2)cc1` (stereo not drawn) came in with a melting point of 165 to 166 °C.
For `CC(C)N1C(=O)C(C(N)=O)N(c2cc(Cl)cc(Cl)c2)C1=O` (stereo not drawn) the value was 200 °C.
Compound `CCc1nc(-c2ccc(OCCn3ccnc3)cc2)no1` had a melting point of 81 to 82 °C.
Then `O=C(O)CCC1(NC(=O)c2ccc(Cl)c(Cl)c2)C(=O)N(CCCc2ccccc2)c2ccccc21` (stereo not drawn), with 242 to 243 °C; and `FC(F)(F)c1ccc2nc(CN3CCN(c4ccc(Cl)cc4)CC3)cn2c1`, with 128 to 135 °C; and `Cc1nn(-c2ccccn2)c2[nH]c3cccc(C(=O)O)c3c(=O)c12`, with 303 to 306 °C.
For `CC(C)(C)c1cc(C(=O)c2ccc([N+](=O)[O-])cc2)cc(C(C)(C)C)c1O` the value was 178 to 180 °C; for `CCC(=C(c1ccc(O)cc1)c1ccc(OCCN(C)C)cc1)c1ccccc1`, 114 to 117 °C.
In the case of `N#Cc1cnc2sc(I)cc2c1Nc1cccc2cc[nH]c12`, the melting point is above 245 °C.
Then `C/C=C/c1ccc2c(NCc3ccc(NC(=O)c4ccc(F)cc4)cc3)nc(N(C)C)nc2c1`, with 246 °C; and `CC(C)(C)OC(=O)NCc1cc(C(C)(C)C)cc(Cl)c1O`, with 161 to 163 °C.
With `O=C(NC1CCN(C2CCCCC2)C1)c1cccc(Br)c1` (stereo not drawn), the melting point was in the range of 128 to 130 °C.
The compound `CCCc1nc(SC2CCC(CC(=O)O)CC2)c(C(=O)O)n1Cc1cc2c(cc1Cl)OCO2` (stereo not drawn) had a melting point of 166 °C.
Then `CCOc1ccc([N+](=O)[O-])c(NC2Cc3ccccc3C2)c1`, with 151 °C.
Then `COc1ccc(-c2cc(C(F)(F)F)n3ncc(-c4ccncc4)c3n2)cc1`, with 244 °C.
In turn, `Cc1cn(C2CC(OP(N)O)C(CO[Si](C)(C)C(C)(C)C)O2)c(=O)[nH]c1=O` (stereo not drawn) gave a melting point of 68 to 70 °C.
`CCOC(=O)C1(c2ccccc2)CCN(C2=CCC(C#N)(c3ccccn3)CC2)CC1` (stereo not drawn) showed a melting point of 160 °C.
Regarding `CCCCCCCCC#CCCCCCCCC(=O)Nc1nc(CC(=O)O)cs1`, the melting point lay within 95.5 to 96.5 °C.
For `CC(CO)(CO)NS(=O)(=O)c1cc(NC(=O)c2cnn3c(C(F)(F)F)cc(-c4ccc(C(F)(F)F)cc4)nc23)c(Cl)s1` the value was 201 °C; for `COC(c1ccc(NC(=O)c2c(C)nn(C)c2C)cc1CC(C)C)(C(F)(F)F)C(F)(F)F`, 189 to 190 °C; for `CCN(Cc1cc(Br)ccc1OCc1ccccc1)c1ncc(C(=O)NS(=O)(=O)c2ccccc2)s1`, 140 to 145 °C.
In turn, `CCSC(=O)n1c(=NC(=O)N(C)C)sc2ccccc21` registered a melting point of 138 °C.
On to `CCOC(=O)c1cc([N+](=O)[O-])c(Cl)nc1C(=O)OCC`, for which the melting point was 70 to 72 °C.
Then `O=C(O)CN1CCCC(n2nc(-c3c(-c4ccccc4)nn4ccccc34)ccc2=O)C1=O` (stereo not drawn), with 145 to 150 °C.
Compound `Cn1c2ccccc2c2sc3c(C=O)cccc3c21` registered a melting point of 128 to 130 °C.
Take `COC(=O)CCc1cc2nc(C)ccc2n1S(=O)(=O)c1ccccc1`: the melting point is 98 to 115 °C.
For `Cc1noc(NS(=O)(=O)c2cccs2)c1Br` the value was 125 to 127 °C; for `Cn1nc(-c2c(F)cccc2Cl)nc1-c1ccc(COc2ncc(Cl)cc2Cl)c(Cl)c1`, 153 to 155 °C; for `COc1cc(OC)c2c(=O)[nH]c(-c3ccc(OCCO)c(-c4cccc(S(C)=O)c4)n3)nc2c1` (stereo not drawn), 272 to 273 °C.
For `CCOC(=O)Nc1c(C(=O)OC)sc2cc(OC)ccc12` the value was 137 °C.
For `COc1c(N2C[C@H](N)[C@H]3OCC[C@H]32)c(F)cc2c(=O)c(C(=O)O)cn(C3CC3)c12` (relative stereo) the value was 187 to 189 °C; for `CCN(CC)Cc1nc2cc(OC)c(OC)cc2c(-c2ccc(OC)c(OC)c2)c1C(C)O` (stereo not drawn), 144 to 145 °C.
Compound `O=C(O)CNC1CCc2ccccc2C1` (stereo not drawn) came in with a melting point of 223 to 227 °C.
For `CCCc1nn(CC)c2c(=O)[nH]c(-c3ccccc3OCC)nc12` the value was 114 to 115 °C.
Regarding `CS(=O)(=S)OCCCCC(=O)O` (stereo not drawn), the melting point lay within 61 to 62.5 °C.
Take `O=C1N(c2ccccc2Br)Cc2cnc(Nc3ccccc3)nc2N1c1cccc2ccccc12`: the melting point was 120 to 125 °C.
On to `O=C(O)c1csc(CO)c1`, for which the melting point is 149 °C.
For `COC(=O)C(Oc1cc(OCc2ccsc2)ccc1C#N)c1ccccc1` (racemic) the value was 112 to 114 °C.
Take `CC(C(=O)NCCO)c1ccc(C(=O)c2cccs2)cc1` (stereo not drawn): the melting point was found to be 87.1 °C.
For `N#Cc1cc(F)c(F)cc1[N+](=O)[O-]` the value was 75 °C; for `CCOc1noc2c1CN(C(=O)OC)CCC2`, 51.5 to 52 °C; for `COc1cccc([C@H]2O[C@H](CC(=O)NCc3cccc(CCC(=O)O)c3)C(=O)N(CC(C)(C)CO)c3ccc(Cl)cc32)c1OC`, 177 to 178 °C.
For `COc1ccc(COc2ccc(-c3ccc(C(=O)O)c(=O)[nH]3)cc2OC)cc1OC` the value was 217 to 218 °C; for `Cc1ccsc1-c1[nH]nc2c1C(=O)c1c(NC(N)=O)cccc1-2`, 270 °C.
As to `Cc1cc(=O)[nH]c2c1C(=O)CCC2`, the melting point fell in the range of 96 to 97 °C.
`NC(=O)C1CCN(c2ncncc2Cl)CC1`: the melting point was 201 to 202 °C.
Take `CCCn1cc2c(C3C(=O)Nc4ccc(Cl)cc43)ncnc2n1` (stereo not drawn): the melting point lay in the range of 302 to 306 °C.
`CCNC(=O)NCC1CC1c1cccn2nc(C)cc12` (stereo not drawn) came in with a melting point of 108 to 110 °C.
`CC[C@H]1COC(=O)N1c1nc(-c2ccc(Br)cc2)c(F)s1` returned a melting point of 105 to 107 °C.
Then `COC(=O)/C=C/C(=O)O[C@@H](C)C(=O)N1CCOCC1`, with 79 to 82 °C; and `Cc1c(Cl)cccc1NCc1ccccc1Cl`, with 63 to 66 °C.
